Data as given in BigSolDB 2.1.

CCn1c2ccccc2c2cc(-n3nncc3-c3ccccc3)ccc21
Details | solubility (mole fraction)
in acetonitrile, 281.7 K | 0.00188
in acetonitrile, 287.8 K | 0.00249
in acetonitrile, 295.4 K | 0.00335
in acetonitrile, 304.8 K | 0.00485
in acetonitrile, 312.3 K | 0.0066
in acetonitrile, 319.4 K | 0.00933
in acetonitrile, 325 K | 0.0125
in ethanol, 279.2 K | 0.000406
in ethanol, 281.5 K | 0.000428
in ethanol, 285.8 K | 0.000529
in ethanol, 288.8 K | 0.000598
in ethanol, 291.9 K | 0.000685
in ethanol, 297.2 K | 0.000847
in ethanol, 307.8 K | 0.00136
in ethanol, 313 K | 0.0017
in ethanol, 318.9 K | 0.00222
in ethanol, 323.2 K | 0.00274
in ethanol, 329 K | 0.00376
in ethyl acetate, 278.9 K | 0.00403
in ethyl acetate, 282.5 K | 0.00438
in ethyl acetate, 288.6 K | 0.00531
in ethyl acetate, 293.8 K | 0.0062
in ethyl acetate, 296.6 K | 0.00681
in ethyl acetate, 301.9 K | 0.00793
in ethyl acetate, 306.3 K | 0.00903
in ethyl acetate, 310.5 K | 0.0103
in ethyl acetate, 318 K | 0.0129
in ethyl acetate, 322.8 K | 0.0154
in ethyl acetate, 326.9 K | 0.0182
in isopropanol, 279.4 K | 0.000218
in isopropanol, 290.4 K | 0.000352
in isopropanol, 294.2 K | 0.000467
in isopropanol, 298.4 K | 0.000571
in isopropanol, 300.9 K | 0.000684
in isopropanol, 304.6 K | 0.000794
in isopropanol, 307.7 K | 0.000913
in isopropanol, 311 K | 0.00113
in isopropanol, 319.5 K | 0.00181
in isopropanol, 324.1 K | 0.00226
in isopropanol, 330.2 K | 0.00329
in methanol, 279.3 K | 0.000409
in methanol, 281.9 K | 0.000468
in methanol, 288.2 K | 0.000591
in methanol, 300.7 K | 0.000949
in methanol, 306.1 K | 0.00116
in methanol, 314.8 K | 0.00165
in methanol, 320.7 K | 0.00222
in methanol, 325 K | 0.00279
in n-butanol, 280.1 K | 0.000585
in n-butanol, 283.7 K | 0.000684
in n-butanol, 288.6 K | 0.000848
in n-butanol, 292.7 K | 0.00111
in n-butanol, 298.2 K | 0.00138
in n-butanol, 307.4 K | 0.00221
in n-butanol, 312.6 K | 0.00276
in n-butanol, 320.4 K | 0.00401
in n-butanol, 331.5 K | 0.00688
in n-propanol, 283 K | 0.000556
in n-propanol, 285.1 K | 0.00067
in n-propanol, 288.8 K | 0.000774
in n-propanol, 297.1 K | 0.00111
in n-propanol, 307 K | 0.00177
in n-propanol, 312.2 K | 0.00223
in n-propanol, 319.4 K | 0.00314
in n-propanol, 325.2 K | 0.00418
in n-propanol, 330.2 K | 0.00554
in sec-butanol, 279.9 K | 0.000287
in sec-butanol, 283.2 K | 0.000366
in sec-butanol, 291.7 K | 0.000592
in sec-butanol, 294.6 K | 0.00073
in sec-butanol, 298.4 K | 0.000892
in sec-butanol, 306.7 K | 0.00149
in sec-butanol, 315.7 K | 0.0024
in sec-butanol, 319.1 K | 0.00295
in sec-butanol, 321.3 K | 0.0034
in sec-butanol, 329.5 K | 0.0053
